Measurements: PubChem BioAssay (NCI)
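Method: 48-hour compound exposure of cells in 96-well plates, five concentrations, linear interpolation of endpoints. TGI: total growth inhibition.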

Experiments:
Experiment in all cases: NCI anticancer screen, dose series, 48 h
HOP-62 NSCLC = test system: HOP-62 NSCLC
IGROV1 ovarian = test system: IGROV1 ovarian
KM12 colon = test system: KM12 colon
SF-539 CNS = test system: SF-539 CNS
HCT-116 colon = test system: HCT-116 colon
SNB-19 CNS = test system: SNB-19 CNS
EKVX NSCLC = test system: EKVX NSCLC
LOX IMVI melanoma = test system: LOX IMVI melanoma
COLO 205 colon = test system: COLO 205 colon
HT29 colon = test system: HT29 colon
PC-3 prostate = test system: PC-3 prostate
NCI-H23 lung = test system: NCI-H23 lung
SK-MEL-5 melanoma = test system: SK-MEL-5 melanoma

SMILES | TGI (HOP-62 NSCLC) | TGI (IGROV1 ovarian) | TGI (KM12 colon) | TGI (SF-539 CNS) | TGI (HCT-116 colon) | TGI (SNB-19 CNS) | TGI (EKVX NSCLC) | TGI (LOX IMVI melanoma) | TGI (COLO 205 colon) | TGI (HT29 colon) | TGI (PC-3 prostate) | TGI (NCI-H23 lung) | TGI (SK-MEL-5 melanoma)
CC1=CC(C)C(C)N(CCNC(=O)Nc2ccccc2)c2ccccc21 (centres undefined) | 63.4 µM | > 100 µM | 57.9 µM | 68.3 µM | 35 µM | 85.2 µM | 76.3 µM | 24.3 µM | 32.6 µM | 32.1 µM | 69.2 µM | 49.1 µM | 27.8 µM
CCOC(=O)c1sc2nc(SC)nc(Nc3ccc4c(c3)OCCCO4)c2c1N | 61.5 µM | > 100 µM | > 100 µM | > 100 µM | > 100 µM | > 100 µM | > 100 µM | > 100 µM | > 100 µM | > 100 µM | > 100 µM | > 100 µM | 18.7 µM
CCOC(=O)C(NNS(=O)(=O)c1ccc(C)cc1)S(=O)(=O)C(F)(F)C(F)(F)C(F)(F)C(F)(F)F (centres undefined) | > 100 µM | > 100 µM | > 100 µM | > 100 µM | > 100 µM | > 100 µM | > 100 µM | > 100 µM | > 100 µM | > 100 µM | > 100 µM | > 100 µM | > 100 µM
COC(=O)c1ccccc1C1CN=NC12Cc1c(C)cc(C)cc1C2=O (centres undefined) | > 100 µM | > 100 µM | > 100 µM | > 100 µM | > 100 µM | > 100 µM | > 100 µM | > 100 µM | > 100 µM | > 100 µM | > 100 µM | > 100 µM | > 100 µM
Cc1[nH]c2c(C)ccc(C)c2c1CC(=O)O | > 100 µM | > 100 µM | > 100 µM | > 100 µM | > 100 µM | > 100 µM | > 100 µM | > 100 µM | > 100 µM | > 100 µM | 69.9 µM | > 100 µM | > 100 µM
CCOC(=O)Cc1ccc(Nc2nc3cc(C(F)(F)F)ccc3nc2C(=O)OCC)cc1 | > 100 µM | > 100 µM | > 100 µM | 55.3 µM | > 100 µM | > 100 µM | > 100 µM | > 100 µM | > 100 µM | > 100 µM | > 100 µM | > 100 µM | > 100 µM
Cc1c(O)c(OC2OC(CO)C(O)C(O)C2O)cc2c1CC[C@@H]1C2(C)C(=O)C[C@]2(C)[C@@H]([C@@](C)(O)C(O)/C=C/C(C)(C)O)[C@H](O)C[C@@]12C (some centres undefined) | > 100 µM | > 100 µM | > 100 µM | > 100 µM | > 100 µM | > 100 µM | > 100 µM | > 100 µM | > 100 µM | > 100 µM | > 100 µM | > 100 µM | > 100 µM
O=C(O)C(Cc1ccc(O)cn1)NC(=O)C(F)(F)F (centres undefined) | > 100 µM | > 100 µM | > 100 µM | > 100 µM | > 100 µM | > 100 µM | > 100 µM | > 100 µM | > 100 µM | > 100 µM | > 100 µM | > 100 µM | > 100 µM
